Reference: ChEMBL document CHEMBL1641368, “NF kappa B inhibitors and antitrypanosomal metabolites from endophytic fungus Penicillium sp. isolated from Limonium tubiflorum” (Bioorg Med Chem, 2011)
Converted amounts (≈) assume the structure as drawn.

Assays:
[1] = system: Trypanosoma brucei brucei; assay: Antitrypanosomal activity against Trypanosoma brucei brucei S427 after 48 hrs by alamar blue assay; type: functional; details: S427, 48 h
Jurkat = assay: Cytotoxicity against human Jurkat cells after 24 hrs by MTT assay; type: functional, cell-based
K562 = assay: Cytotoxicity against human K562 cells after 24 hrs by MTT assay; type: functional, cell-based
[2] = Inhibition of NF-kappaB activity in TNFalpha-stimulated human K562 cells after 24 hrs by luciferase reporter gene assay; type: cell-based; details: K562, 24 h
U-937 = assay: Cytotoxicity against human U937 cells after 24 hrs by MTT assay; type: functional, cell-based; details: U-937, 24 h
[3] = Homo sapiens, K562, 24 h, read-out: IC50

Compound | MIC [1] [µM] | IC50 (Jurkat) [µM] | IC50 (K562; [3]) [µM] | IC50 [2] [µM] | IC50 (U-937) [µM] | IC50 (K562; k562)
C[C@H]1CCC/C=C\C(=O)c2c(O)cc(O)cc2CC(=O)O1 | > 100 |  |  |  |  | 
Cc1ccc(C(=O)Nc2ccc(S(=O)(=O)O)c3cc(S(=O)(=O)O)cc(S(=O)(=O)O)c23)cc1NC(=O)c1cccc(NC(=O)Nc2cccc(C(=O)Nc3cc(C(=O)Nc4ccc(S(=O)(=O)O)c5cc(S(=O)(=O)O)cc(S(=O)(=O)O)c45)ccc3C)c2)c1 [SURAMIN] | 0.06 (≈ 0.0778 µg/mL) |  |  |  |  | 
COc1cc(C)cc2c1C(=O)c1c(O)cc(O)c(Cl)c1C2O (configuration not stated) | 9.75 (≈ 3.13 µg/mL) |  |  |  |  | 
C=C1CC[C@@H]2C(C)(C)CCC[C@@]2(C)[C@@H]1CC/C(C)=C/Cn1c[n+](C)c2ncnc(N)c21 [AGELASINE D] | 14.8 |  |  |  |  | 
C[C@H]1CCC/C=C/C(=O)c2c(O)cc(O)cc2CC(=O)O1 [DEHYDROCURVULARIN] | > 100 | 5.5 | 37 | 5.6 | 2.5 | 
Cc1cc(=O)c2c(C)cc(O)cc2o1 | > 100 |  |  |  |  | 
C[C@H]1CCC[C@H]2O[C@@H]2C(=O)c2c(O)cc(O)cc2CC(=O)O1 | > 100 |  |  |  |  | 
CO[C@H]1CCC[C@H](C)OC(=O)Cc2cc(O)cc(O)c2C(=O)C1 [11ALPHA-METHOXYCURVULARIN] | 9.68 (≈ 3.12 µg/mL) | 2.3 | 41.1 | 10.1 | 4.6 | 
C[S+]([O-])c1cccc2ccc(=O)oc12 (configuration not stated) [SULFIMARINE] | > 100 |  |  |  |  | 
COc1cc(CO)cc2c1C(=O)c1c(O)cc(O)c(Cl)c1C2=O | 18.7 (≈ 6.26 µg/mL) | 28.4 | 40.1 | 16 | 22 | 
COc1cc(C)cc2c1C(=O)c1c(O)cc(O)c(Cl)c1C2=O | 78.6 (≈ 25.1 µg/mL) | 13.3 | 24.8 | 1.6 | 7.6 | 
C/C=C/C=C/C(=O)C1=C(O)[C@@]2(C)[C@H]3C(C(=O)/C=C/C=C/C)=C(O)[C@@]4(C)[C@@H]1[C@]1(C)O[C@@]4(O)[C@@]3(C)O[C@@]12O [TRICHODIMEROL] | 6.29 (≈ 3.12 µg/mL) | 28.5 | 74.4 | 47.8 | 16.5 | 
COc1cc(CO)cc2c1C(=O)c1c(O)cc(O)cc1C2=O [CARVIOLIN] | 41.7 (≈ 12.5 µg/mL) | > 100 |  | > 100 | > 100 | Not Active
COc1cc(C)cc2c1C(=O)c1c(O)cc(O)cc1C2=O [1-O-METHYLEMODIN] | 11 (≈ 3.12 µg/mL) | > 100 |  | > 100 | 88.6 | Not Active
COc1cc(C)cc2c1C(=O)c1c(O)cc(O)c(Cl)c1[C@H]2[C@H]1c2cc(C)cc(OC)c2C(=O)c2c(O)cc(O)c(Cl)c21 [NEOBULGARONE E] | > 100 | 82.4 | > 100 | 46 | 47.6 | 
CO[C@@H]1CCC[C@H](C)OC(=O)Cc2cc(O)cc(O)c2C(=O)C1 [11BETA-METHOXYCURVULARIN] | 4.96 (≈ 1.6 µg/mL) | 3.9 | 12.4 | 4.7 | 1.8 | 
COc1cc(C)cc2c1C(=O)c1c(O)cc(O)c(Cl)c1[C@H]2[C@H]1c2cc(CO)cc(OC)c2C(=O)c2c(O)cc(O)c(Cl)c21 [NEOBULGARONE G] | > 100 | > 100 |  | > 100 | > 100 | Not Active
